According to US20050171012A1, “Preventives/remedies for bone/joint diseases” (TAKEDA CHEMICAL INDUSTRIES, LTD., priority 2001, published 2005):

Tests used:
[1] = molecular target: human DIO1 (type 1 thyroid hormone deiodinase) (Homo sapiens, UniProt P49895); settings: 1 mM PTU, T4 concentration 5 μM, 37° C. one hour; FIG. 4b
Description: (§1) Using human thyroid-derived cDNA (Marathon Ready cDNA; Clontech) as a template, the following sequences were amplified by PCR: the amino acid coding sequence (cds) of human DIO1 (type 1 thyroid hormone deiodinase) using primer 1 (SEQ ID NO: 17) and primer 2 (SEQ ID NO: 18); DIO1 selenocystein insertion sequence (SECIS) using primer 3 (SEQ ID NO: 19) and primer 4 (SEQ ID NO: 20); human DIO2 cds using primer 5 (SEQ ID NO: 21) and primer 6 (SEQ ID NO: 22); and DIO2 SECIS (Buettner et al., 1998) using primer 7 (SEQ ID NO: 23) and primer 8 (SEQ ID NO: 24).
(§2) The resultant DNAs for human DIO1 cds and human DIO2 cds were inserted into pcDNA3.1 (Invitrogen) individually to thereby obtain plasmids pTB2240 and pTB2242. Further, the resultant DNAs for human DIO1 SECIS and human DIO2 SECIS were inserted into pCR2.1 (Invitrogen) individually to thereby obtain plasmids pTB2241 and pTB2244. DIO1 SECIS and DIO2 SECIS were cut out with restriction enzymes Sca I and Not I (Takara Shuzo) and introduced into DIO1 or DIO2 coding sequence-inserted plasmid pretreated with restriction enzymes Eco RV and Not I (Takara Shuzo) to thereby construct DIO1 expression plasmid pTB2248 and DIO2 expression plasmid pTB2249.
(§3) COS-7 cells (3×10^5) were plated in 6 cm petri dishes. […]

human DIO2 = molecular target: T1, human DIO2 (Homo sapiens, UniProt Q92813); test: Thyroid hormone deiodinase activity (T3 production from T4, T3 RIA) in disrupted COS-7 cells with DIO2 expression plasmid pTB2249; assay type: biochemical; settings: FIG. 4c
T1 construct: expressed in transfected cells; host or cells: COS-7 cells, transiently transfected with pTB2249 (pcDNA3.1 backbone), sonicated to disrupted cells
T1 sequence (Q92813 1-273): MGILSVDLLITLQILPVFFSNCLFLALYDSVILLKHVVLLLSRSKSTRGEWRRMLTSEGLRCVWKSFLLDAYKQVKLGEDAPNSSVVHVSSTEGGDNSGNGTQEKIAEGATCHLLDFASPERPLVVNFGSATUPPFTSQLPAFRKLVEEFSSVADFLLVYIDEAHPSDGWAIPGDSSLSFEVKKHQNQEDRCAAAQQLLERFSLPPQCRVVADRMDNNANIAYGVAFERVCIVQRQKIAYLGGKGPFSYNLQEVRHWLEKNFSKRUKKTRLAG
Description: as §1, §2, §3

[2] = system: Normal human articular chondrocytes of knee (NHAC-kn); test: Induction of alkaline phosphatase activity in normal human articular chondrocytes of knee by T3; assay type: cell-based; settings: NHAC-kn cells, 0.05-50 nM T3, 6 days; FIG. 2
Experimental: Normal human articular chondrocytes of knee (NHAC-kn; Clonetics) were plated on gelatin-coated 24-well plates (Iwaki) at 2×10^5 cells/well and cultured in DMEM high glucose medium (Gibco) containing 1 μg/ml insulin, 1 μg/ml transferin, 1 ng/ml selenious acid (these components were contained in ITS; BD Bioscience), 1 mg/ml BSA, 50 μg/ml ascorbic acid phosphate magnesium salt n-hydrate (Wako) and 5 mM β-glycerophosphate in a CO2 incubator under 5% CO2 at 37° C. with addition of 0.05-50 nM T3 (triiodothyronine) (Sigma) if necessary. After 6 days, the culture broth was removed from cells and 200 μl of 10 mM Tris-HCl (pH 7.4) containing 0.1% Triton X-100 was added to each well. Then, cells were shaken at 4° C. for 1 hour on a horizontal shaker to thereby extract proteins from the cell layer. The alkaline phosphatase (AP) activity of the extract was determined from the yield of p-nitrophenol using p-nitrophenylphosphate as a substrate (Sigma). The protein content in the extract was measured with BCA protein assay reagent (Pierce) to thereby calculate the AP activity per a specific amount of protein.

[3] = system: Normal human articular chondrocytes of knee (NHAC-kn); test: Induction of MMP13 gene expression in normal human articular chondrocytes of knee by T3; assay type: cell-based; settings: NHAC-kn cells, 0.1-10 nM T3, 6 days; FIG. 3
Experimental: Normal human articular chondrocytes of knee (NHAC-kn; Clonetics) were plated on gelatin-coated 96-well plates (Iwaki) at 2×10^5 cells/well and cultured in DMEM high glucose medium (Gibco) containing 1 μg/ml insulin, 1 μg/ml transferin, 1 ng/ml selenious acid (these components were contained in ITS; BD Bioscience) and 1 mg/ml BSA, and supplemented with 5 mM β-glycerophosphate (Sigma), 50 μg/ml ascorbic acid phosphate magnesium salt n-hydrate (Wako) and, if necessary, 0.1-10 nM T3 (triiodothyronine) (Sigma), in a CO2 incubator under 5% CO2 at 37° C. After 6 days, RNA was extracted from cells using RNeasy (Qiagen) according to the attached protocol. Using the total RNA as a template, cDNA was synthesized from random primers with TaqManreverse transcription reagent (Applied Biosystems). Subsequently, 2 μl of the reaction solution containing cDNA was mixed with a 2 μl reaction solution containing 0.34 μM of two primers (SEQ ID NO: 15 and SEQ ID NO: 16) and 1×PCR Master Mix (Applied Biosystems) and subjected to PCR. […]
The PCR was performed with ABI7700 sequence detector (Applied Biosystems). The number of copies of MMP13 cDNA was measured by real-time monitoring the amount of the PCR product. The number of copies of β-actin cDNA was also measured in the same manner using TaqMan β-actin control reagent (Applied Biosystems) and used as internal standard. […]

Sequence of human DIO1 (type 1 thyroid hormone deiodinase) (P49895 whole entry): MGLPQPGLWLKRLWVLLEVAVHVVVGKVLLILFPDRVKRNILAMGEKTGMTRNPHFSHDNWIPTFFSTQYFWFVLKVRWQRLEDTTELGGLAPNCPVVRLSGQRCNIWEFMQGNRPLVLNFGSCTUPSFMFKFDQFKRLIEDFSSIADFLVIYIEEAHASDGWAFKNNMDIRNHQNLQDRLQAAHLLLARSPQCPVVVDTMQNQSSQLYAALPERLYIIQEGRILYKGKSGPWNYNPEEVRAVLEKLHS

CCCc1cc(=O)[nH]c(=S)[nH]1 [PTU, propylthiouracil]
inhibition of DIO1 activity (T3 production) [1]: completely inhibited | influence on DIO2 activity of pTB2249 (T3 production) (human DIO2; 1 mM PTU, 37° C. one hour): influenced little

N[C@@H](Cc1cc(I)c(Oc2ccc(O)c(I)c2)c(I)c1)C(=O)O [T3, triiodothyronine]
alkaline phosphatase (AP) activity of cell layer extract per amount of protein [2]: induced in a T3 concentration-dependent manner | mRNA of MMP13 (number of copies of MMP13 cDNA normalized with β-actin) [3]: induced in a T3 concentration-dependent manner

N[C@@H](Cc1ccc(Oc2cc(I)c(O)c(I)c2)c(I)c1)C(=O)O [rT3, riverse triiodothyronine]
inhibition of DIO2 activity of pTB2249 (T3 production) (human DIO2; rT3 5 μM, competition with T4, 37° C. one hour): partially inhibited
